Laboratory results: patent US7029863B2, “Cell culture system for determining the cholesterol efflux potential for serum” (The Children's Hospital of Philadelphia, priority 2001, dated 2006)

Legend:
Assay type in all cases: cell-based
[1] = system: W138VA13 human embryonic lung fibroblasts; assay: Cell cholesterol efflux to supplemented human serum, untreated W138VA13 fibroblasts; conditions: human serum supplemented with increasing levels of the substance; 4 hour incubation; low SR-BI and ABCA1 expression; FIG. 1C
Description: (§1) FIG. 1C is a graph of the percentage of efflux of cell cholesterol after a four hour incubation period of W138VA13 human embryonic lung fibroblasts with serum supplemented with HDL3 and serum supplemented with Apo AI. Numbers on X axis represent the fold increase of HDL3 or Apo AI with the X axis of 1 being the unsupplemented serum.
(§2) FIGS. 1A–1F illustrate that the expression of SR-BI and ABCA1 independently in cultured cells can be used to detect cell cholesterol efflux to human sera with different levels of apolipoprotein AI, high density lipoprotein (HDL) or high density lipoprotein3 (HDL3). […] The control and supplemented serum samples were then diluted in tissue culture medium and incubated with the indicated cell systems; the efflux of cell cholesterol was measured after a 4 hour incubation period.
FIG. 1C is a graph of the percentage of efflux of cell cholesterol after a four hour incubation period of W138VA13 human embryonic lung fibroblasts with serum supplemented with HDL3 and serum supplemented with Apo AI. FIG. 1C illustrates that W138VA13 human embryonic lung fibroblasts have low expression levels of both proteins and cell cholesterol efflux is unresponsive to either type of serum supplementation.

[2] = system: W138VA13 human embryonic lung fibroblasts pretreated with 9-cis retanoic acid (9CRA) and 22 hydroxycholesterol to upregulated ABCA1; assay: Cell cholesterol efflux to supplemented human serum, W138VA13 fibroblasts with ABCA1 upregulated; conditions: human serum supplemented with increasing levels of the substance; 4 hour incubation; FIG. 1E
Description: (§3) Numbers on X axis represent the fold increase of HDL3 or Apo AI with the X axis of 1 being the unsupplemented serum.
as §2

[3] = system: J774 mouse macrophages treated with cAMP to upregulate the expression of ABCA1; assay: Cell cholesterol efflux to supplemented human serum, J774 macrophages with ABCA1 upregulated by cAMP; conditions: human serum supplemented with increasing levels of the substance; 4 hour incubation; FIG. 1B
Description: as §1, with “1B” for “1C”, “J774 mouse macrophages treated with cAMP to upregulate the expression of ABCA1” for “W138VA13 human embryonic lung fibroblasts”
For example, in one embodiment of the present invention, an assay to quantitate the contribution of ABCA1 to cellular cholesterol efflux uses a sample of cells, such as transformed mouse macrophages which are grown in monolayers and prelabeled with ^3H-cholesterol. […] The release of the radiolabeled cholesterol is determined after an appropriate incubation time ranging from 1 to 12 hours. The ABCA1 contribution to efflux is determined by subtracting the efflux obtained in ABCA1 negative cultures from that obtained from the ABCA1 positive cultures.
as §2, with “period. […]” for “period.”

[4] = system: W138VA13 human embryonic lung fibroblasts transfected with SR-BI with ABCA1 upregulated; assay: Cell cholesterol efflux to supplemented human serum, W138VA13 fibroblasts with SR-BI transfected and ABCA1 upregulated; conditions: human serum supplemented with increasing levels of the substance; 4 hour incubation; FIG. 1F
Description: as §3, §2

Apo AI: apolipoprotein AI added to human serum in increasing levels
percentage of efflux of cell cholesterol [1]: unresponsive | percentage of efflux of cell cholesterol [2]: enhanced | percentage of efflux of cell cholesterol [3]: enhanced cholesterol efflux | efflux of cell cholesterol [4]: enhanced efflux
